These results are taken from patent US7220437B2, “Antiviral and antibacterial activities of extracts from eight plants” (priority 1996, dated 2007).

Each structure is given as a SMILES string. ≈ marks a conversion by molar mass, not a printed value. Counter-ions that a name gives are not always drawn. Marks after values point to notes of the source that are not given here.

One data set deals with HIV-2 strain GH1. Description: Anti-HIV-2 cytopathicity in Molt 4 clone 8 cells. It counts as cell-based. Background: Cytopathic effects are the visible damage that an infection or toxin causes in cultured cells.
A further data set has as its system HIV-1 strain GH3. Briefly: Anti-HIV cytopathicity, acute infection of M8166 cells. Type of data set: cell-based. The conditions noted are these: high multiplicity of infection of 0.11424.
The subject of another data set is Salmonella typhimurium. Briefly: Bacteria growth, tetrazolium-based colorimetry.
A further data set deals with Edwardsiella species. Description: Bacteria growth, tetrazolium-based colorimetry.
For a further data set, the system named is Klebsiella pneumoniae. Briefly: Bacteria growth, tetrazolium-based colorimetry.
A further data set has as its system Staphylococcus aureus. Description: Bacteria growth, tetrazolium-based colorimetry.
For data set [1], the system named is PBMCs. Description: Ex vivo effects on culture induced death of PBMCs of AIDS patients. It counts as cell-based, human. The conditions noted are these: four AIDS patients; noncytotoxic concentrations.
The subject of data set [2] is PBMCs.
Where [3] appears, read: MOI 0.018, treatment after 40 mins of virus adsorption.
The mark [4] stands for this setting: Salmonella enterica, TYPHIMURIUM
Where [5] appears, read: Edwardsiella, inoculum 10^1 CID50.
Where [6] appears, read: Edwardsiella, inoculum 10^2 CID50.
Setting [7] is: Edwardsiella, inoculum 10^3 CID50.

Broadly, the EC50 is the concentration that produces a half-maximal response. The term EC90 denotes the point of the concentration-response curve where the effect stands at 90%. Higher therefore signals a need for much substance. With `Cc1cn([C@H]2C[C@H](N=[N+]=[N-])[C@@H](CO)O2)c(=O)[nH]c1=O` [AZT, 3′-azido-2′,3′-dideoxythymidine], in the data set with HIV-2 strain GH1 (MOI 0.018, treatment 2 hrs after virus adsorption), the EC50 turned out to be 0.000001 mg/mL (≈ 0.00374 µM). Further, in the data set with HIV-2 strain GH1 (setting [3]), the EC50 is reported as <0.0000003* mg/ml and the EC90 came out at 0.3 mg/L (≈ 1.12 µM). In addition, the cell protection in the data set with HIV-1 strain GH3 is reported as less than 90%.

Consider `CC1(C)S[C@@H]2[C@H](NC(=O)Cc3ccccc3)C(=O)N2[C@H]1C(=O)[O-].[Na+]` [Penicillin G, sodium penicillin G], for which the EC50 in the data set on Salmonella typhimurium (inoculum 10^1 CID50) was 157 to 314 mg/L; with Edwardsiella species (inoculum 10^1 CID50), 196 to 392 µg/mL; with Edwardsiella species (inoculum 10^2 CID50) it was 196 to 392 µg/mL; in the data set on Edwardsiella species (inoculum 10^3 CID50), >0.784* mg/ml; in the data set on Klebsiella pneumoniae (inoculum 10^2 CID50), 75 mg/L; with Staphylococcus aureus (inoculum 10^1 CID50), less than 0.5 mg/L. The EC50 with Staphylococcus aureus (inoculum 10^2 CID50) is less than 0.5 mg/L; in the data set on Staphylococcus aureus (inoculum 10^3 CID50), 2 mg/L. Also, the EC90 was 0.157–0.314* mg/ml in the data set with Salmonella typhimurium (inoculum 10^1 CID50); 392 mg/L in the data set with Edwardsiella species (inoculum 10^1 CID50); 392 to 784 mg/L in the data set with Edwardsiella species (inoculum 10^2 CID50); more than 784 mg/L in the data set with Edwardsiella species (inoculum 10^3 CID50); 130 mg/L in the data set on Klebsiella pneumoniae (inoculum 10^2 CID50); less than 0.5 mg/L with Staphylococcus aureus (inoculum 10^1 CID50). Also, the EC90 with Staphylococcus aureus (inoculum 10^2 CID50) is less than 0.5 mg/L; in the data set on Staphylococcus aureus (inoculum 10^3 CID50), 2 to 4 mg/L.

As for `[H]/N=C(/N)N[C@H]1[C@H](O)[C@@H](O)[C@H](O[C@@H]2O[C@@H](C)[C@](O)(C=O)[C@H]2O[C@@H]2O[C@@H](CO)[C@H](O)[C@@H](O)[C@@H]2NC)[C@@H](N/C(N)=N\[H])[C@@H]1O` [Streptomycin sulfate, streptomycin sulfate], the EC50 in the data set with Salmonella typhimurium (setting [4]) was 16 to 32 mg/L; in the data set on Salmonella typhimurium (inoculum 10^2 CID50) it was 16 to 32 mg/L; in the data set with Salmonella typhimurium (inoculum 10^3 CID50), 16 to 32 mg/L; with Edwardsiella species (setting [5]), 63 µg/mL; with Edwardsiella species (setting [6]), 63 µg/mL; with Edwardsiella species (setting [7]), more than 500 µg/mL. The EC50 was less than 1 mg/L in the data set with Klebsiella pneumoniae (Klebsiella pneumoniae), less than 0.4 mg/L in the data set on Staphylococcus aureus (Staphylococcus aureus), less than 0.4 mg/L in the data set on Staphylococcus aureus (inoculum 10^2 CID50) and less than 0.4 mg/L in the data set on Staphylococcus aureus (inoculum 10^3 CID50). Moreover, the EC90 with Salmonella typhimurium (setting [4]) is 16 to 32 mg/L; in the data set on Salmonella typhimurium (inoculum 10^2 CID50) it was 16 to 32 mg/L; in the data set with Salmonella typhimurium (inoculum 10^3 CID50), 16 to 32 mg/L; in the data set with Edwardsiella species (setting [5]), 63 to 125 mg/L; in the data set on Edwardsiella species (setting [6]), 500 mg/L; with Edwardsiella species (setting [7]) it was more than 500 mg/L. The EC90 in the data set on Klebsiella pneumoniae (Klebsiella pneumoniae) is less than 1 mg/L; in the data set on Staphylococcus aureus (Staphylococcus aureus), less than 0.4 mg/L; in the data set with Staphylococcus aureus (inoculum 10^2 CID50) it was less than 0.4 mg/L; in the data set with Staphylococcus aureus (inoculum 10^3 CID50), less than 0.4 mg/L.

Consider `Nc1ccn([C@H]2CC[C@@H](CO)O2)c(=O)n1` [ddCyd, 2′,3′-dideoxycytidine], for which, in the data set with PBMCs [1], the “accelerated culture induced death of PBMCs from AIDS patients” value is given as “effective in these patients except one AIDS patient”. The “toxicity towards PBMCs from the healthy person” value with PBMCs [2] was “no toxicity”.

Consider `OC[C@@H]1CC[C@H](n2cnc3c(O)ncnc32)O1` [ddino, 2′,3′-dideoxyinosine], for which the “accelerated culture induced death of PBMCs from AIDS patients” value with PBMCs [1] was “effective in these patients except one AIDS patient”.
